ChEMBL document CHEMBL1201862, “PubChem BioAssay data set” (2004)
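Results reflect a 48-hour exposure of cells in 96-well plates to compound at five concentrations. GI50 marks 50% less growth.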 Active and inactive are the calls of the source. Cut-off read from the data, not from the text of the source: active = GI50 up to about 1.1 µM and inactive = higher.

Experiments:
Assay in all cases: DTP human tumour cell line panel, 48 h
SF-268 = system: SF-268
SNB-19 = system: SNB-19
MOLT-4 = system: MOLT-4
A549 = system: A549
SK-OV-3 = system: SK-OV-3
CCRF-CEM = system: CCRF-CEM
U-251 = system: U-251
OVCAR-4 = system: OVCAR-4
HOP-62 = system: HOP-62
UO-31 = system: UO-31
SK-MEL-2 = system: SK-MEL-2
SNB-78 = system: SNB-78
TK-10 = system: TK-10
NCI-H23 = system: NCI-H23
786-0 = system: 786-0
KM12 = system: KM12
UACC-62 = system: UACC-62
OVCAR-3 = system: OVCAR-3
NCI-H522 = system: NCI-H522
MDA-N = system: MDA-N

| SMILES | GI50 (SF-268) | GI50 (SNB-19) | GI50 (MOLT-4) | GI50 (A549) | GI50 (SK-OV-3) | GI50 (CCRF-CEM) | GI50 (U-251) | GI50 (OVCAR-4) | GI50 (HOP-62) | GI50 (UO-31) | GI50 (SK-MEL-2) | GI50 (SNB-78) | GI50 (TK-10) | GI50 (NCI-H23) | GI50 (786-0) | GI50 (KM12) | GI50 (UACC-62) | GI50 (OVCAR-3) | GI50 (NCI-H522) | GI50 (MDA-N) |
| --- | --- | --- | --- | --- | --- | --- | --- | --- | --- | --- | --- | --- | --- | --- | --- | --- | --- | --- | --- | --- |
| Cc1nn(-c2ccccc2)c2nc(N3CCOCC3)nnc12 | > 100 µM (inactive) | > 100 µM (inactive) | 40.6 µM (inactive) | 94.4 µM (inactive) | > 100 µM (inactive) | > 100 µM (inactive) | 52.8 µM (inactive) | 34.7 µM (inactive) | > 100 µM (inactive) | 28.6 µM (inactive) | 51.3 µM (inactive) | > 100 µM (inactive) | > 100 µM (inactive) | 79.6 µM (inactive) | > 100 µM (inactive) | > 100 µM (inactive) | 69.2 µM (inactive) | 88.7 µM (inactive) |  |  |
| N#Cc1ccccc1NC(=O)c1ccccc1 | > 100 µM (inactive) | > 100 µM (inactive) |  | > 100 µM (inactive) |  |  | > 100 µM (inactive) | > 100 µM (inactive) | > 100 µM (inactive) |  | > 100 µM (inactive) | > 100 µM (inactive) | > 100 µM (inactive) | > 100 µM (inactive) | > 100 µM (inactive) | > 100 µM (inactive) | > 100 µM (inactive) | > 100 µM (inactive) |  |  |
| COc1ccccc1NC(=O)C1=C(C)NC(C)=C(C(=O)Nc2ccccc2OC)C1c1ccc([N+](=O)[O-])cc1 | > 100 µM (inactive) | 89.1 µM (inactive) | 7.23 µM (inactive) | > 100 µM (inactive) | > 100 µM (inactive) | 19.5 µM (inactive) | 86.1 µM (inactive) | 56.2 µM (inactive) | > 100 µM (inactive) |  | 74.5 µM (inactive) | > 100 µM (inactive) | 74.5 µM (inactive) | 58.6 µM (inactive) | 99.5 µM (inactive) | 51.6 µM (inactive) | 59.6 µM (inactive) | > 100 µM (inactive) | 24.4 µM (inactive) |  |
| CC(=O)OCC(OC(C)=O)C(OC(C)=O)C(OC(C)=O)C(=O)CNn1c(-c2ccc(C)cc2)nc2ccccc2c1=O (centres undefined) | > 100 µM (inactive) | > 100 µM (inactive) | 82.8 µM (inactive) | > 100 µM (inactive) | > 100 µM (inactive) | > 100 µM (inactive) | > 100 µM (inactive) | > 100 µM (inactive) | > 100 µM (inactive) | > 100 µM (inactive) | > 100 µM (inactive) | > 100 µM (inactive) |  | > 100 µM (inactive) | > 100 µM (inactive) | > 100 µM (inactive) | 60.5 µM (inactive) | > 100 µM (inactive) | 57.9 µM (inactive) |  |
| CCCCCCCCCCCCCCCC(=O)NC1CCc2cc(O)c(O)c(O)c2-c2ccc(SC)c(=O)cc21 (centres undefined) | 5.28 µM (inactive) | 9.29 µM (inactive) | 9.44 µM (inactive) | 1.49 µM (inactive) | 14.4 µM (inactive) | 3.93 µM (inactive) | 1.29 µM (inactive) | 10.3 µM (inactive) | 9.59 µM (inactive) | 8.22 µM (inactive) |  | 8.55 µM (inactive) | 15.8 µM (inactive) | 1.37 µM (inactive) | 16.6 µM (inactive) | 6.22 µM (inactive) | 2.9 µM (inactive) | 5.28 µM (inactive) | 2.37 µM (inactive) |  |
| COC(=O)C1=CON2C3CC4CC(C3)CC(C4)C12C (centres undefined) | > 100 µM (inactive) | > 100 µM (inactive) | > 100 µM (inactive) | > 100 µM (inactive) | > 100 µM (inactive) | > 100 µM (inactive) | > 100 µM (inactive) | > 100 µM (inactive) | > 100 µM (inactive) | > 100 µM (inactive) | > 100 µM (inactive) |  | > 100 µM (inactive) | > 100 µM (inactive) | > 100 µM (inactive) | > 100 µM (inactive) | > 100 µM (inactive) | > 100 µM (inactive) | > 100 µM (inactive) | > 100 µM (inactive) |
| C=C(CN1CC2C[C@](C(=O)OC)(c3cc4ccccc4[nH]3)C1C(OC)C2OC)S(=O)(=O)c1ccccc1 (some centres undefined) | 4.43 µM (inactive) | 10.8 µM (inactive) | 0.53 µM (active) | 3.13 µM (inactive) | 3.49 µM (inactive) | 2.24 µM (inactive) | 2.88 µM (inactive) | 3.04 µM (inactive) | 4.78 µM (inactive) | 1.49 µM (inactive) | 4.17 µM (inactive) |  | 4.85 µM (inactive) | 2.91 µM (inactive) | 2.4 µM (inactive) | 2.88 µM (inactive) | 4.11 µM (inactive) | 3.35 µM (inactive) | 1.7 µM (inactive) | 2.69 µM (inactive) |
| COC(=O)c1sc(=S)sc1SCc1ccc(CSc2sc(=S)sc2C(=O)OC)cc1 | > 100 µM (inactive) | > 100 µM (inactive) | > 100 µM (inactive) | > 100 µM (inactive) | > 100 µM (inactive) | > 100 µM (inactive) | > 100 µM (inactive) | > 100 µM (inactive) | > 100 µM (inactive) | > 100 µM (inactive) | > 100 µM (inactive) |  | > 100 µM (inactive) | > 100 µM (inactive) | > 100 µM (inactive) | > 100 µM (inactive) | > 100 µM (inactive) | > 100 µM (inactive) | > 100 µM (inactive) | > 100 µM (inactive) |
| COC(=O)C(Cc1ccccc1)NC(=O)c1ccc(CNC(=S)NCc2cccc(CNC(=S)NCc3ccccc3)c2)cc1 (centres undefined) | 18.3 µM (inactive) | > 33.3 µM (inactive) | > 34 µM (inactive) | > 34.5 µM (inactive) | > 33.9 µM (inactive) | > 34 µM (inactive) | > 33.5 µM (inactive) | > 32.1 µM (inactive) | 28.9 µM (inactive) | > 35.2 µM (inactive) | > 33.3 µM (inactive) |  | > 35.8 µM (inactive) | > 35.4 µM (inactive) | > 34.6 µM (inactive) | > 29 µM (inactive) | > 34.6 µM (inactive) | 27.9 µM (inactive) | > 32.5 µM (inactive) | > 32.5 µM (inactive) |
| C/C(=N\NS(=O)(=O)c1ccccc1)c1ccc[n+]([O-])n1 | > 100 µM (inactive) | > 100 µM (inactive) | 36.4 µM (inactive) | > 100 µM (inactive) | > 100 µM (inactive) | 19.4 µM (inactive) | > 100 µM (inactive) | 49.3 µM (inactive) | > 100 µM (inactive) | > 100 µM (inactive) |  | 63.7 µM (inactive) |  | > 100 µM (inactive) | > 100 µM (inactive) | > 100 µM (inactive) | > 100 µM (inactive) | 42.5 µM (inactive) | 25.6 µM (inactive) |  |
| CN(C)CCCNc1c2c(nc3ccc(Cl)cc13)CCCC2 | 13.2 µM (inactive) | 19.1 µM (inactive) | 4.12 µM (inactive) | 16.8 µM (inactive) | 23 µM (inactive) | 3.93 µM (inactive) | 14.9 µM (inactive) | 15.3 µM (inactive) | 12.9 µM (inactive) | 10 µM (inactive) | 19.3 µM (inactive) |  | 15.2 µM (inactive) | 15.8 µM (inactive) | 10.5 µM (inactive) | 13.6 µM (inactive) | 16.9 µM (inactive) | 14.8 µM (inactive) | 12.2 µM (inactive) | 13.5 µM (inactive) |
| COC(=O)[C@@H]1COC(=O)N1 | > 100 µM (inactive) | > 100 µM (inactive) | > 100 µM (inactive) | > 100 µM (inactive) | > 100 µM (inactive) | > 100 µM (inactive) | > 100 µM (inactive) | > 100 µM (inactive) | > 100 µM (inactive) | > 100 µM (inactive) | > 100 µM (inactive) |  | > 100 µM (inactive) | > 100 µM (inactive) | > 100 µM (inactive) | > 100 µM (inactive) | > 100 µM (inactive) | > 100 µM (inactive) | > 100 µM (inactive) | > 100 µM (inactive) |
| C(=N\c1ccc(-c2nc3ccccc3s2)cc1)/c1ccco1 | 48.2 µM (inactive) | > 100 µM (inactive) | 29 µM (inactive) | 56.6 µM (inactive) | 83.8 µM (inactive) | 37.6 µM (inactive) | 47.6 µM (inactive) | 59.6 µM (inactive) | 30.4 µM (inactive) | 62.4 µM (inactive) | 60.3 µM (inactive) |  | 2 µM (inactive) | 70.6 µM (inactive) | 83 µM (inactive) | 38 µM (inactive) | 54.2 µM (inactive) | 43.6 µM (inactive) | 44.5 µM (inactive) | 72.9 µM (inactive) |
| CC1(C)CC(=O)c2c(nc3c4c([nH]c(-c5ccc(Br)cc5)c24)CC(C)(C)C3)C1 | 55.6 µM (inactive) | 70.3 µM (inactive) | 13.8 µM (inactive) | 29.6 µM (inactive) | > 100 µM (inactive) | 16.9 µM (inactive) | 23.8 µM (inactive) | 30.7 µM (inactive) | > 100 µM (inactive) | 45.1 µM (inactive) | 36.6 µM (inactive) |  | 61.1 µM (inactive) | 52.1 µM (inactive) | 22 µM (inactive) | 33.4 µM (inactive) | 53.6 µM (inactive) | 27.1 µM (inactive) | 23.6 µM (inactive) | 40.3 µM (inactive) |
| CC1CNC(c2ccc(CN3CCC(CCCC4CCN(Cc5ccc(C6=NC(C)CN6)cc5)CC4)CC3)cc2)=N1 (centres undefined) | > 100 µM (inactive) | 24.5 µM (inactive) | 19.4 µM (inactive) | 66.1 µM (inactive) | 25.5 µM (inactive) | 19.5 µM (inactive) | 35 µM (inactive) | 19.7 µM (inactive) | 32.2 µM (inactive) | > 100 µM (inactive) | 21.7 µM (inactive) |  | 75.3 µM (inactive) | > 100 µM (inactive) | > 100 µM (inactive) | 16.9 µM (inactive) | 59.8 µM (inactive) | > 100 µM (inactive) | 23.5 µM (inactive) | 17.5 µM (inactive) |
